According to patent US5374626A, “5'-alkylphosphonylnucleosides as antivirals” (priority 1989, dated 1994):
Read-outs that look alike come from different tables or passages of the source.

System: Influenza virus
Conditions: mice, ninth day

NC(=O)c1ncn([C@@H]2O[C@H](CO)[C@@H](O)[C@H]2O)n1 [RIBAVIRIN]
% PROTECTION (LUNG LESIONS) TEST (1.6 mg/kg (31 mcg/mouse) I.N., Wilcoxon * p < 0.01, ° p < 0.025): 15% | % PROTECTION (LUNG LESIONS) TEST (100 mg/kg (2000 mcg/mouse) P.OS, * p < 0.01 Wilcoxon): 27%
